Results as given in US8822463B2, “Methylcyclohexane derivatives and uses thereof” (Sk Biopharmaceuticals Co., Ltd., priority 2010, dated 2014).

Assays:
[1] = tested on: LPS-induced NO production in mouse microglia (BV2); test: LPS-induced NO production inhibition test, mouse microglia (BV2); type: cell-based; settings: BV-2, BV2 cells, 20 ng/ml LPS, 24 hours, Griess reagent
Protocol: (§1) Mouse monocytes (RAW) and mouse microglia (BV2) cells were cultured on a 96-well transparent plate (Nunc) in such a way that each of the wells contained 60,000 and 35,000 cells respectively. After 18 hours, when stabilized, the cells were treated with lipopolysaccharide (Sigma, USA, Cat No. L2630) in a morbid state derived from 20 ng/ml of Escherichia coli O111:B4 and 4 different concentrations (50 uM, 12.5 uM, 3.1 uM, and 0.8 uM) of the compounds synthesized according to Examples 1 to 55. Then, the cells were cultured for 24 hours, and a concentration of increased NO was measured. The NO concentration was determined by measuring absorption at a wavelength of 540 nm after a Griess reagent including 0.1% N-(1-naphthyl)ethylenediamine dihydrochloride, 1% sulfanilamide, and 2.5% phosphoric acid were added thereto.

[2] = tested on: LPS-induced NO production in mouse monocytes (RAW); test: LPS-induced NO production inhibition test, mouse monocytes (RAW); type: cell-based; settings: Monocyte, RAW cells, 20 ng/ml LPS, 24 hours, Griess reagent
Protocol: as §1

Row | Structure (SMILES) | IC50 [1] [µM] | IC50 [2] [µM]
1 | O=C(NCCc1ccccc1)OC1CCC(COC(=O)N2CCCC2)CC1 (stereo not shown) [Example 1, pyrrolidine-1-carboxylic acid 4-phenethylcarbamoyloxy-cyclohexylmethyl ester] | 19.9 | 27.9
2 | O=C(NCCc1ccccn1)OC1CCC(COC(=O)N2CCCC2)CC1 (stereo not shown) [Example 2, pyrrolidine-1-carboxylic acid 4-(2-pyridin-2-yl-ethylcarbamoyloxy)-cyclohexylmethyl ester] | 40.1 | > 50
3 | O=C(NCCc1cccnc1)OC1CCC(COC(=O)N2CCCC2)CC1 (stereo not shown) [Example 3, pyrrolidine-1-carboxylic acid 4-(2-pyridin-3-yl-ethylcarbamoyloxy)-cyclohexylmethyl ester] | 30.3 | 22.3
4 | O=C(NCCc1ccc[n+]([O-])c1)OC1CCC(COC(=O)N2CCCC2)CC1 (stereo not shown) [Example 6, pyrrolidine-1-carboxylic acid 4-[2-(1-oxy-pyridin-3-yl)-ethylcarbamoyloxy]-cyclohexylmethyl ester] | > 50 | 41.2
5 | O=C(NCc1ccccn1)OC1CCC(COC(=O)N2CCCC2)CC1 (stereo not shown) [Example 7, pyrrolidine-1-carboxylic acid 4-(pyridin-2-ylmethylcarbamoyloxy)-cyclohexylmethyl ester] | > 50 | > 50
6 | O=C(NCc1ccncc1)OC1CCC(COC(=O)N2CCCC2)CC1 (stereo not shown) [Example 9, pyrrolidine-1-carboxylic acid 4-(pyridin-4-ylmethylcarbamoyloxy)-cyclohexylmethyl ester] | > 50 | > 50
7 | O=C(NCc1cc[n+]([O-])cc1)OC1CCC(COC(=O)N2CCCC2)CC1 (stereo not shown) [Example 11, pyrrolidine-1-carboxylic acid 4-(1-oxy-pyridin-4-ylmethylcarbamoyloxy)-cyclohexylmethyl ester] | > 50 | 10.2
8 | O=C(NCc1ccc[n+]([O-])c1)OC1CCC(COC(=O)N2CCCC2)CC1 (stereo not shown) [Example 12, pyrrolidine-1-carboxylic acid 4-(1-oxy-pyridin-3-ylmethylcarbamoyloxy)-cyclohexylmethyl ester] | > 50 | > 50
9 | O=C(NCc1cccc(Cl)n1)OC1CCC(COC(=O)N2CCCC2)CC1 (stereo not shown) [Example 14, pyrrolidine-1-carboxylic acid 4-(6-chloro-pyridin-2-ylmethylcarbamoyloxy)-cyclohexylmethyl ester] | 22.3 | 21.7

Now from value to compound:

Row | IC50 [1] [µM] | IC50 [2] [µM] | Structure (SMILES)
10 | 32.9 | 30.3 | O=C(NCCc1ccncc1)OC1CCC(COC(=O)N2CCCC2)CC1 (stereo not shown) [Example 4, pyrrolidine-1-carboxylic acid 4-(2-pyridin-4-yl-ethylcarbamoyloxy)-cyclohexylmethyl ester]
11 | 48.7 | > 50 | O=C(NCCc1cccc[n+]1[O-])OC1CCC(COC(=O)N2CCCC2)CC1 (stereo not shown) [Example 5, pyrrolidine-1-carboxylic acid 4-[2-(1-oxy-pyridin-2-yl)-ethylcarbamoyloxy]-cyclohexylmethyl ester]
12 | 5.3 | 46.1 | CN(Cc1ccccn1)C(=O)OC1CCC(COC(=O)N2CCCC2)CC1 (stereo not shown) [Example 10, pyrrolidine-1-carboxylic acid 4-(methyl-pyridin-2-ylmethyl-carbamoyloxy)-cyclohexylmethyl ester]
13 | > 50 | 27.9 | O=C(NCc1cccc[n+]1[O-])OC1CCC(COC(=O)N2CCCC2)CC1 (stereo not shown) [Example 13, pyrrolidine-1-carboxylic acid 4-(1-oxy-pyridin-2-ylmethylcarbamoyloxy)-cyclohexylmethyl ester]
14 | 13.8 | 11.1 | O=C(NCc1ccc(C(F)(F)F)nc1)OC1CCC(COC(=O)N2CCCC2)CC1 (stereo not shown) [Example 19, pyrrolidine-1-carboxylic acid 4-(6-trifluoromethyl-pyridin-3-ylmethylcarbamoyloxy)-cyclohexylmethyl ester]
